Measurements published in US8614230B2, “Derivatives of the aminated hydroxyquinoline class for treating cancers” (Biopharmed, priority 2007, dated 2013).
Read-outs that look alike come from different tables or passages of the source.

Key:
KB cells = assay: Cytotoxicity / cell viability on KB cells (colony-forming assay); format: cell-based, human; conditions: for Cytotoxicity on KB cells (percentage inhibition of cell viability): relative to reference without compound
Procedure: Cancerous KB cells are also considered, to determine the cell viability (or survival rate). This cell viability is determined according to the teaching of Nicholson K. M. et al., British Journal of Cancer, 1999, 81, 423-430.
KB cells are human carcinoma cell lines, KB-3-1. These cells are maintained in a culture medium, “Dulbecco's modified Eagle's medium” (DMEM—Sigma), which contains 0.11 g/l of sodium pyruvate and 4.5 g/l of glucose, supplemented with 10% (v/v) fetal calf serum, penicillin (32 μg/ml) and streptomycin (50 μg/ml). The cells are cultured as monolayers and are incubated at 37° C. in a humid atmosphere (95% air/5% CO2).
The preceding KB cells are then incubated in 6- or 96-well plates in the presence of the test compounds of the invention, dissolved in dimethyl sulfoxide (DMSO). The content of surviving cells is measured by the “colony-forming assay” test, in which the cells are redistributed at a density of 100 to 300 cells per well in 24-well plates, for a period of 8 days, and are then stained with Leishman's reagent (0.2% in methanol). The colonies of more than 50 cells are counted visually under a microscope, the survival rate being expressed on the colonies formed in the presence of the compounds of the invention relative to cell colonies not treated with said compounds. The determination of the IC50 values (concentration of compounds in the reaction medium for which 50% of the tested tumor cells survived the treatment) enables comparison of the efficacy of these compounds.

U87/GFP cells [1] = assay: Antiproliferative effect on U87/GFP cells (flash cytometry); format: cell-based, human; conditions: for inhibition at 10 µM / inhibition at 2 µM: read-out: Antiproliferative effect on U87/GFP cells: percentage inhibition
Procedure: For the U-87/GFP cells, the control of cell proliferation and migration in the presence of the compounds (I) of the invention is performed via a colorimetric method (MTS) and is performed according to known standard protocols. The methodologies implemented use flash cytometry (Trophos S.A., Marseilles, France). The flash cytometry technique involves fluorescence, which consists of irradiating a compound at a set wavelength and of recording the fluorescence emitted at another wavelength. This technique is performed with a flash cytometer and adapted for 96-well test plates. The excitation and emission wavelengths in the context of use of this fluorescence are located in the 485-495 nm range. The measured fluorescence expresses the amount of cells surviving after treatment with the compounds of the invention. The publications by Luby-Phelps K. et al., J. Histochemistry and Cytometry, 2003, 51, 271-274 and Modarai B. et al., Circulation, 2005, 111, 2645-2653 may be mentioned by way of reference for the above methods.
The cells of the U87/GFP lines are cultured in 96-well plates according to a standard methodology described by Bajetto et al., Neurochemistry International, 2006, 43, 31-38 in the presence of different concentrations of the compounds of the invention.
The cell proliferation is determined and quantified according to standard methods known to those skilled in the art. A 100% proliferation is attributed to the untreated cells and a percentage less than 100% is obtained when the same cells are treated with the compounds of the invention.
(§1) The cell proliferation and migration are determined by imaging using a flash cytometer (Trophos S.A., Marseilles, France), and the calculations are performed using the “Metamorph 4.6” imaging signal processing software (Molecular Devices, USA), the use of which, which is known in the field, makes it possible to determine the above two effects independently of each other.

U87/GFP cells [2] = assay: Antimigratory effect on U87/GFP cells (scratch technique); format: cell-based, human
Procedure: The determination of the antimigratory activity of the compounds (I) of the invention on these same cell lines, cultured in MEM medium (Minimum Essential Medium) is performed via the “scratch” technique that consists in scratching a cell lawn using a micropipette cone. By comparison with these same cells not containing the compounds of the invention, the antimigratory effect is determined. A 100% migration is attributed to the untreated cells, whereas, as a function of the concentration of the compounds (I) of the invention, total stoppage of migration is determined by observation of the “scratch” remaining unfilled by the cell migration, by means of computer software.
as §1

mice = conditions: comparison value for anticancer drugs; cited from earlier work
[3] = Homo sapiens, KB, approximate value given in the description, read-out: cytotoxic activity IC50 on KB cells
[4] = Homo sapiens, KB, first value of two experiments performed in parallel, read-out: Cytotoxicity on KB cells (IC50)
[5] = Homo sapiens, KB, second value of two experiments performed in parallel, read-out: Cytotoxicity on KB cells (IC50)
[6] = concentration giving 80% inhibition of migration
[7] = first value of two experiments performed in parallel, read-out: Cytotoxicity on KB cells (IC50)
[8] = second value of two experiments performed in parallel, read-out: Cytotoxicity on KB cells (IC50)
[9] = Homo sapiens, concentration giving 50% inhibition of proliferation
[10] = concentration giving 50% inhibition of proliferation

Compound	Cytotoxicity on KB cells (percentage inhibition of cell viability) (KB cells; at 1 μM) [% at 1 μM]	IC50 (KB cells; [4]) [µM]	IC50 (KB cells; [5]) [µM]	IC50 (KB cells; [7]) [µM]	IC50 (KB cells; [8]) [µM]	other results
CC(C)(C)OC(=O)N1CCCN(Cc2ccc(O)c3ncccc23)CCCN(C(=O)OC(C)(C)C)CCN(C(=O)OC(C)(C)C)CCC1 [I2, tri-tert-butyl 12-((8-hydroxyquinolin-5-yl)methyl)-1,4,8,12-tetraazacyclopentadecane-1,4,8-tricarboxylate]	28	–	–	–	–	–
CC(C)(C)OC(=O)N1CCCN(C(=O)OC(C)(C)C)CCN(C(=O)OC(C)(C)C)CCCNC(Cc2ccc(O)c3ncccc23)CC1 (stereo not shown) [I3, tri-tert-butyl 11-((8-hydroxyquinolin-5-yl)methyl)-1,4,8,12-tetraazacyclopentadecane-1,4,8-tricarboxylate]	15	–	–	–	–	–
Oc1ccc(CN2CCCNCCNCCCNCC2)c2cccnc12 [I4, 5-((1,4,8,11-tetraazacyclotetradecane-1-yl)methyl)quinolin-8-ol]	27	–	–	–	–	–
Oc1ccc(CN2CCCNCCN(Cc3ccc(CN4CCCNCCNCCCNCC4)cc3)CCCNCC2)c2cccnc12 [I7, 5-((8-(4-((1,4,8,11-tetraazacyclotetradecane-1-yl)methyl)benzyl)-1,4,8,11-tetraazacyclotetradecan-1-yl)methyl)quinolin-8-ol]	93	0.122	0.303	–	–	Antiproliferative effect on U87/GFP cells: concentration at which activity is observed (U87/GFP cells [1]; percentage not given): 2 µM; IC50 (KB cells; [3]): ~0.1 µM
Oc1ccc(CN2CCN(Cc3ccc(O)c4ncccc34)CC2)c2cccnc12 [I8, 5,5′-(piperazine-1,4-diylbis (methylene))diquinolin-8-ol]	94	0.043	0.032	–	–	–
CC(C)(C)OC(=O)N1CCCN(C(=O)OC(C)(C)C)CCN(Cc2ccc(O)c3ncccc23)CCCN(Cc2ccc(O)c3ncccc23)CC1 [I9, di-tert-butyl 4,8-bis((8-hydroxyquinolin-5-yl)methyl)-1,4,8,11-tetraazacyclotetradecane-1,11-dicarboxylate]	77	0.398	0.639	–	–	IC50 (KB cells; [3]): ~0.4 µM
Oc1ccc(CN(Cc2ccccc2)Cc2ccc(O)c3ncccc23)c2cccnc12 [I12]	93	–	–	0.0015	0.005	Antimigratory effect on U87/GFP cells: percentage inhibition (U87/GFP cells [2]; at 2 μM): 80%; IC50 (U87/GFP cells [2]; [6]): 2 µM; Antiproliferative effect on U87/GFP cells: percentage inhibition (U87/GFP cells [1]; at 0.5 μM): 30%; IC50 (U87/GFP cells [1]; concentration giving 30% inhibition of proliferation): 0.5 µM
Oc1ccc(CNCc2ccccc2)c2cccnc12 [I13, 5-((benzylamino)methyl)quinolin-8-ol]	90	> 1	1.3	–	–	inhibition at 10 µM (U87/GFP cells [1]; Homo sapiens): 50%; IC50 (U87/GFP cells [1]; [9]): 10 µM
Cc1ccc(CNCc2ccc(O)c3ncccc23)cc1 [I16, 5-((4-methylbenzylamino)methyl)quinolin-8-ol]	–	11	10	–	–	inhibition at 2 µM (U87/GFP cells [2]; Homo sapiens, at 2 μM, read-out: Antimigratory effect on U87/GFP cells: percentage inhibition): 80%; IC50 (U87/GFP cells [2]; [6]): 2 µM; inhibition at 2 µM (U87/GFP cells [1]; Homo sapiens): 80%; IC50 (U87/GFP cells [1]; concentration giving 80% inhibition of proliferation): 2 µM; Cytotoxicity on KB cells (percentage inhibition of cell viability) (KB cells; at 2 μM): 50% at 2 μM
Oc1ccc(NCc2cccc3ccccc23)c2cccnc12 [I17, 5-(naphthalen-1-ylmethylamino)quinolin-8-ol]	–	1	0.95	–	–	–
Oc1ccc(N(Cc2cccc3ccccc23)c2ccc(O)c3ncccc23)c2cccnc12 [I18, 5,5′-(naphthalen-1-ylmethylazanediyl)diquinolin-8-ol]	–	0.005	0.0045	–	–	inhibition at 2 µM (U87/GFP cells [1]; Homo sapiens): 50%; IC50 (U87/GFP cells [1]; [9]): 2 µM
CC(NCc1ccc(O)c2ncccc12)c1ccccc1 (stereo not shown) [I33]	–	–	–	1	1.1	Antiproliferative effect on U87/GFP cells: percentage inhibition (U87/GFP cells [1]; at 0.5 μM): 50%; IC50 (U87/GFP cells [1]; [10]): 0.5 µM
Oc1ccc(CNCc2ccc(C(F)(F)F)cc2)c2cccnc12 [I34]	–	–	–	10	9	Antiproliferative effect on U87/GFP cells: percentage inhibition (U87/GFP cells [1]; at 5-10 μM): 50%; IC50 (U87/GFP cells [1]; [10]): 5 to 10 µM
Oc1ccc(CNCc2cccc(C(F)(F)F)c2)c2cccnc12 [I35]	–	–	–	0.2	0.22	–
CC(C)(C)OC(=O)N(Cc1cccc(C(F)(F)F)c1)Cc1ccc(O)c2ncccc12 [I36]	–	–	–	1	1.1	Antiproliferative effect on U87/GFP cells: percentage inhibition (U87/GFP cells [1]; at 5-10 μM): 50%; IC50 (U87/GFP cells [1]; [10]): 5 to 10 µM
CC(C)(C)OC(=O)N(Cc1ccc(C(F)(F)F)cc1)Cc1ccc(O)c2ncccc12 [I37]	–	–	–	8	9	Antiproliferative effect on U87/GFP cells: percentage inhibition (U87/GFP cells [1]; at 5-10 μM): 50%; IC50 (U87/GFP cells [1]; [10]): 5 to 10 µM
CC(C)(C)OC(=O)N(Cc1ccccc1)Cc1ccc(O)c2ncccc12 [I38]	–	–	–	0.9	1.1	Antiproliferative effect on U87/GFP cells: percentage inhibition (U87/GFP cells [1]; at 5-10 μM): 50%; IC50 (U87/GFP cells [1]; [10]): 5 to 10 µM
CC(=O)O[C@H]1C(=O)[C@@]2(C)[C@H]([C@H](OC(=O)c3ccccc3)[C@]3(O)C[C@H](OC(=O)[C@H](O)[C@@H](NC(=O)c4ccccc4)c4ccccc4)C(C)=C1C3(C)C)[C@]1(OC(C)=O)CO[C@@H]1C[C@@H]2O [Taxol]	–	–	–	–	–	LD50 (mice): about 10 mg/kg
Cn1nnc2c(C(N)=O)ncn2c1=O [Temodal ®, reference compound]	–	–	–	–	–	inhibition at 10 µM (U87/GFP cells [2]; Homo sapiens, at 10 μM, read-out: Antimigratory effect on U87/GFP cells: percentage inhibition): 50%; IC50 (U87/GFP cells [2]; Homo sapiens, concentration giving 50% inhibition of migration): 10 µM; inhibition at 10 µM (U87/GFP cells [1]; Homo sapiens): 50%; IC50 (U87/GFP cells [1]; [9]): 10 µM
